Results on 1 molecule are retold here after paper PMC10815238, “New N-Terminal Fatty-Acid-Modified Melittin Analogs with Potent Biological Activity” (International Journal of Molecular Sciences, 2024).

Data set [1] has as its system human red blood cells. The following applies: cited from earlier work. The procedure: (§1) Despite its multiple potential biological activities, the applications for melittin are limited due to its severe hemolytic activity and low proteolytic stability. Melittin results in 50% hemolysis of human red blood cells at a concentration of 2 μM and 100% at 7 μM [19].
Data set [2] has as its system trypsin. Conditions: cited from earlier work. The method, then:
as §1

Data set [3] relates to pepsin. The following applies: after 2 h of incubation; cited from earlier work. From the text: Poor protease stability is one of the main factors that has limited melittin’s clinical application.
Data set [4] deals with swine erythrocytes. The experiment in a line: Hemolytic activity assay. The following applies: swine erythrocytes in PBS, 1 h, 37 °C; concentration more than 4 μg/mL. Format: cell-based. The procedure: The hemolytic activity of the MDLs was evaluated as described previously with minor modification. Swine erythrocytes were collected by centrifugation at 1000 rpm for 5 min, washed three times, and suspended to a final concentration of 8% vol/vol with PBS (Macklin, Shanghai, China). Equal volumes of erythrocyte suspension and the MDLs solutions at various concentrations were mixed in a 96-well plate and incubated for 1 h at 37 °C. After centrifugation at 1000 rpm for 10 min, the supernatant was transferred to a 96-well plate. The supernatant optical density (OD) was measured at 490 nm using a microplate reader (BioTek, Winooski, VT, USA). Untreated erythrocytes and erythrocytes treated with 1% Triton X-100 (Merck, Darmstadt, Germany) were employed as the negative and positive controls, respectively. The hemolysis percentage was calculated using the following equation: Hemolysis rate%=OD490(lipopeptide)−OD490(PBS)/OD490(1% Triton X-100)−OD490(PBS)×100%

The conditions of data set [5]: fetal bovine serum, human serum, and human plasma; cited from earlier work. The text has this:
However, binding with serum albumin would weaken the detection of the free MDLs and reduce their antibacterial activity.

Data set [6] relates to Shigella castellani (S. castellani) CGMCC 1.1869. Format: cell-based. The following applies: NB medium, 37 °C, 18 h, three independent measurements. The method, then:
(§2) MIC was determined using the broth microdilution method with minor modification. In brief, bacteria (S. aureus ATCC 43300, E. faecalis ATCC 29212, E. coli ATCC 25922, P. aeruginosa ATCC 27853, L. monocytogenes CVCC 3764, B. cereus CVCC 4101, S. Castellani CGMCC 1.1869, and the multidrug-resistant E. coli strain) were cultured in nutrient broth (NB) medium (Macklin, Shanghai, China) to the logarithmic phase and diluted to 1 × 10^6 colony forming units (CFUs)/mL. The MDLs were dissolved to a final concentration of 256~0.25 μg/mL in NB medium using two-fold dilutions. A total of 50 μL of different concentrations of the MDL solutions and an equal volume of bacterial suspension were added to a 96-well plate, which was then incubated at 37 °C for 18 h. The minimum concentrations of the MDLs with no visible growth of bacteria were defined as the corresponding MICs. Media containing bacteria without the MDLs were set as the negative control. Each measurement was performed independently three times.

Data set [7] concerns Enterococcus faecalis (E. faecalis) ATCC 29212. Format: cell-based. The following applies: NB medium, 37 °C, 18 h, three independent measurements. The procedure:
as §2

In data set [8] the test system is Bacillus cereus (B. cereus) CVCC 4101. Format: cell-based. The following applies: NB medium, 37 °C, 18 h, three independent measurements. The method, then: as §2
The subject of data set [9] is Multidrug-Resistant Escherichia coli (E. coli) Strain. Format: cell-based. Conditions: NB medium, 37 °C, 18 h, three independent measurements. The text has this:
The standard strains of S. aureus ATCC 43300, E. faecalis ATCC 29212, E. coli ATCC 25922, and P. aeruginosa ATCC 27853 were obtained from the American Type Culture Collection (ATCC). L. monocytogenes CVCC 3764 and B. cereus CVCC 4101 were obtained from the National Center for Veterinary Culture Collection (CVCC). S. castellani CGMCC 1.1869 was obtained from the China General Microbiological Culture Collection Center. The multidrug-resistant strain Escherichia coli was obtained from the research base of the Chongqing Academy of Animal Sciences (Chongqing, China). All strains were cultured in nutrient broth overnight at 37 °C to a logarithmic growth phase before each experiment.
MIC was determined using the broth microdilution method with minor modification. In brief, bacteria (S. aureus ATCC 43300, E. faecalis ATCC 29212, E. coli ATCC 25922, P. aeruginosa ATCC 27853, L. monocytogenes CVCC 3764, B. cereus CVCC 4101, S. Castellani CGMCC 1.1869, and the multidrug-resistant E. coli strain) were cultured in nutrient broth (NB) medium (Macklin, Shanghai, China) to the logarithmic phase and diluted to 1 × 10^6 colony forming units (CFUs)/mL. The MDLs were dissolved to a final concentration of 256~0.25 μg/mL in NB medium using two-fold dilutions. […]

≈ marks a conversion by molar mass, not a printed value.

With `CC[C@H](C)[C@H](NC(=O)CN)C(=O)NCC(=O)N[C@@H](C)C(=O)N[C@H](C(=O)N[C@@H](CC(C)C)C(=O)N[C@@H](CCCCN)C(=O)N[C@H](C(=O)N[C@@H](CC(C)C)C(=O)N[C@H](C(=O)N[C@H](C(=O)NCC(=O)N[C@@H](CC(C)C)C(=O)N1CCC[C@H]1C(=O)N[C@@H](C)C(=O)N[C@@H](CC(C)C)C(=O)N[C@H](C(=O)N[C@@H](CO)C(=O)N[C@@H](Cc1c[nH]c2ccccc12)C(=O)N[C@H](C(=O)N[C@@H](CCCCN)C(=O)N[C@@H](CCCNC(=N)N)C(=O)N[C@@H](CCCCN)C(=O)N[C@@H](CCCNC(=N)N)C(=O)N[C@@H](CCC(N)=O)C(=O)N[C@@H](CCC(N)=O)C(N)=O)[C@@H](C)CC)[C@@H](C)CC)[C@@H](C)O)[C@@H](C)O)C(C)C)C(C)C` [Mel, Melittin], the “concentration resulting in 50% hemolysis” value in data set [1] is 2 µM. Also, the “concentration resulting in 100% hemolysis” value in data set [1] is 7 µM. In data set [2] (after 60 min of incubation), the “melittin left after incubation with trypsin” value is on record as “almost no melittin is left”. The digestion by trypsin entry in data set [2] is “digested rapidly”. Further, in [3], the degradation by pepsin entry is “entirely degraded”. Moreover, the hemolysis rate entry in [4] is listed as “rapidly increased”. For the same molecule, the “stability in serum and plasma” value in [5] is given as “stable”. Also, the MIC (in general, the smallest concentration in the dilution series that meets the test's criterion for growth inhibition) came out at 32 µg/mL (≈ 11.2 µM) in data set [6], 16 µg/mL (≈ 5.62 µM) in data set [7], 16 µg/mL (≈ 5.62 µM) in data set [8] and 64 µg/mL (≈ 22.5 µM) in data set [9].
